Experimental data as given in PubChem BioAssay (NCI).
Where “and” joins values, the source holds several entries; their conditions need not be identical. Identical values can stand only once.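 Interpolation was linear, between the two tested concentrations surrounding the appropriate level; five concentrations were tested over 48 hours in 96-well plates. GI50 is the concentration that inhibits growth by half. TGI marks complete inhibition of growth.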

What was measured:
Assay in all cases: NCI tumour cell line growth inhibition, 48 h
[1] = system: HOP-62 NSCLC
[2] = system: SK-MEL-5 melanoma
[3] = system: ACHN renal
[4] = system: A549 NSCLC
[5] = system: RXF 393 renal
[6] = system: HCC-2998 colon
[7] = system: SN12C renal
[8] = system: SNB-78 CNS
[9] = system: SF-539 CNS
[10] = system: HOP-18 NSCLC

Structure (SMILES)	TGI [1]	TGI [2]	TGI [3]	TGI [4]	TGI [5]	TGI [6]	TGI [7]	TGI [8] [µM]	TGI [9]	TGI [10] [µM]	GI50 [1] [µM]	GI50 [2] [µM]	GI50 [3] [µM]	GI50 [4] [µM]	GI50 [5] [µM]	GI50 [6] [µM]	GI50 [7] [µM]	GI50 [8] [µM]	GI50 [9] [µM]
c1cncc(C2c3[nH]c4ccccc4c3CCN2CCCN2CCCCC2)c1 (configuration not stated)	> 100 µM	> 100 µM	> 100 µM	> 100 µM	> 100 µM	> 100 µM	> 100 µM	> 100	> 100 µM										
CSc1nc(NC2OCC(OC(C)=O)C(OC(C)=O)C2OC(C)=O)c(N=CC=Nc2c(NC3OCC(OC(C)=O)C(OC(C)=O)C3OC(C)=O)nc(SC)n(C)c2=O)c(=O)n1C (configuration not stated)	> 100 µM	> 100 µM	> 100 µM	> 100 µM	> 100 µM	> 100 µM	> 100 µM		> 100 µM	> 100									
CCOC(=O)/C(=C/c1ccc(OC)c(OC)c1)C(=O)c1ccccc1	35.6 µM	29.5 µM	68.1 µM	90.2 µM		32.5 µM		56.3											
CN1CCC23c4c5ccc(O)c4OC2C(=NN=C2CCC4(O)C6Cc7ccc(O)c8c7C4(CCN6C)C2O8)CCC3(O)C1C5 (configuration not stated)	> 100 µM	> 100 µM	> 100 µM	> 100 µM		> 100 µM	> 100 µM		> 100 µM	> 100									
COC1=CC(=O)c2ccc(C(C)C)cc2C1(C)C1=NC(C)(C)CO1 (configuration not stated)	> 100 µM	> 100 µM	> 100 µM	> 100 µM	> 100 µM		> 100 µM		> 100 µM	> 100									
CCC[CH2][Sn]1([CH2]CCC)[O]C(c2ccccn2)S(=O)(=O)[O]1 (configuration not stated)	43 µM	25 µM	20 µM	34.3 µM	3.95 µM	18.3 µM	21.1 µM	5.86	3.93 µM		28.1	12.5	7.88	20	2.36	4.63	9.11	1.6	1.74
CC(=O)[O-].CC(=O)[O-].[Mn+2].c1ccc(/C(=N\Nc2ccccn2)c2ccccn2)cc1	5.69 µM	5.38 µM	4.44 µM	14.4 µM	14 µM	14.8 µM	6.83 µM		0.665 µM	14.3		0.0567							
CC1(C)CCC(=O)c2c(O)ccc(O)c21		> 100 µM		> 100 µM	77.7 µM	> 100 µM	> 100 µM	> 100	> 100 µM										
COc1ccc(-c2cc(-c3ccc(Nc4nc(Nc5ccc(Cl)cc5)nc(Nc5ccc(Cl)cc5)n4)cc3)no2)cc1	60.5 µM	20.3 µM	> 100 µM	84.7 µM	20.3 µM	8.25 µM	> 100 µM		57.8 µM		20.5	5.08	27.6	16.4	3.67	2.37	20.2		17.2
NC1=NC(=O)N2CC12 (configuration not stated)	> 100 µM and 1250 µM	> 100 µM and 1450 µM	> 100 µM and 1020 µM	> 100 µM and 3450 µM	> 100 µM and 334 µM	> 100 µM and 1250 µM	> 100 µM and 349 µM		> 100 µM and 206 µM	> 100	570	638	347	890		520			
OCCN1CCN(CCO)Cc2ccccc2OCCOc2ccccc2C1	> 100 µM	> 100 µM	> 100 µM	> 100 µM	> 100 µM		> 100 µM	> 100	> 100 µM										
N=c1ccn2c(n1)OC1C(OP(=O)(O)O)C(CO)OC12 (configuration not stated)	> 100 µM	> 100 µM	14 µM	> 100 µM	> 100 µM	96.4 µM	> 100 µM		> 100 µM										
O=c1ncc(-c2ccc(C(F)(F)F)cc2)c(NC2CCCCCC2)[nH]1	36.8 µM	30.6 µM	> 100 µM	> 100 µM	31.8 µM	35.9 µM	33 µM		30.1 µM		20.3	16.6	30.9	25.5	15.8	20	16.2		15.2
CCCCCCCCCCCCCOC(=O)c1c(C)[nH]c(/C=C2\N=C(c3ccc[nH]3)C=C2OC)c1C	14.2 µM	0.0911 µM	12.5 µM	0.505 µM	10.5 µM	> 44.4 µM	> 100 µM		> 26.9 µM		0.801	0.0194	0.139	0.0419	0.465	0.0307	0.156		0.182
NCCCNc1ccc2c(c1)[n+]([O-])c1ccccc1[n+]2[O-]	93.5 µM	31.8 µM	77.7 µM	> 100 µM	55.9 µM	> 100 µM	> 100 µM		53.9 µM										
CCc1ccccc1NC(=O)/C(CC(=O)c1c(C)n([O-])c2ccccc2[n+]1=O)=N\NS(=O)(=O)c1ccc(C)cc1	> 100 µM		> 100 µM	> 100 µM	> 100 µM	> 100 µM	> 100 µM	> 100	> 100 µM										
Cc1cc(Cl)ccc1Nc1sc(C(=O)c2cc3cc(Cl)ccc3o2)c(N)c1C#N	> 37.6 µM	> 100 µM	98.1 µM	> 54.7 µM	> 100 µM	7.24 µM	> 100 µM		> 66 µM										
O=C1C=C(Nc2ccccc2)c2ncccc2C1=O	1.49 µM	0.318 µM	1.22 µM	2.3 µM	2.72 µM	3 µM	0.829 µM		1.21 µM		0.376	0.177	0.349	0.476	1.4	1.55	0.29		0.356
CS(=O)(=O)CCNCc1ccc(-c2ccc3ncnc(Nc4ccc(OCc5ccccc5)c(C(F)(F)F)c4)c3c2)o1	15.8 µM	6.87 µM	> 25 µM	> 25 µM	7.77 µM	8.25 µM	12.3 µM		9.88 µM		6.16	3.55	7.32	8.23	3.53	4.35	5.22		4.69
C/C(=N\O)c1sc(-n2nc(-c3ccccc3)cc2-c2ccccc2)nc1C	22.2 µM	17.3 µM	19.6 µM	25.3 µM		18.2 µM	15.4 µM	> 100	16.7 µM										
CCCCCCN(CCCCCC)C(=N)c1ccnc2ccccc12	24.2 µM	3.45 µM	16.3 µM	25.9 µM	15.5 µM	3.54 µM	21.6 µM		17.5 µM		10.8	1.96	4.23	11.9	4.57	1.78	7		5.12
CC[C@H](C)c1occ2c(O)c(C(=O)O)c(=O)cc-2c1C	69.1 µM	38.1 µM	65.4 µM	> 100 µM	33.5 µM	36.8 µM	81.4 µM		46.3 µM										
CC1(C)CC23C(=O)N(c4ccccc4)C(=Nc4ccccc4)NC2=CC(C#N)=C(C#N)C3O1 (configuration not stated)	> 100 µM	95.5 µM	> 100 µM	> 100 µM	> 100 µM	> 100 µM	> 100 µM	> 100	> 100 µM										
C=C(C)C1CC=C(C(=O)O)CC1 (configuration not stated)	1770 µM	1450 µM	> 5000 µM	3470 µM	3110 µM	2340 µM	> 5000 µM		2510 µM										
CCOC(=O)[C@H](CSSc1ncnc2cc[nH]c12)NC(=O)[C@@H](C)c1ccc2cc(OC)ccc2c1	> 100 µM	> 32.5 µM	> 100 µM	> 100 µM	> 100 µM	> 100 µM	> 100 µM		> 100 µM		0.408	2.25	2.1	6.36	1.62	1.29	3.98		0.478
CCCCCCCCCOC(=S)NC		39.6 µM	37.6 µM	65.1 µM		35.3 µM	36.9 µM		32.5 µM	44.2									
O=S(=O)(/C=C/C=C/S(=O)(=O)c1ccccc1)c1ccccc1	20.9 µM	2.68 µM and 2.98 µM	2.06 µM and 2.05 µM	15.2 µM	0.809 µM and 1.45 µM	25.1 µM	4.16 µM		4.43 µM		8.81	1.49		3.97					2.14
CN(C)CC/C=C1\c2ccccc2Sc2ccc(Cl)cc21	5.44 µM and 28 µM	3 µM and 28.6 µM	14.4 µM and 29.6 µM	11.4 µM and 28.9 µM	5.59 µM and 28.3 µM	3.43 µM and 4.76 µM	13.7 µM and 29.9 µM		11.2 µM and 36.2 µM		1.94	1.62	3.61	2.87	1.86	1.68	2.84		3.61
CON(C)C(=O)C(Cc1ccccc1)NC(=O)OC(C)(C)C (configuration not stated)	> 100 µM	> 100 µM	> 100 µM	> 100 µM	> 100 µM	> 100 µM	> 100 µM		> 100 µM										
